Measured values reported in US8536171B2, “Method for obtaining 5-amino 2,3-dihydrophthalazine-1,4-dione alkali metal salts and their use in medicine” (Abidopharma PL SP. Z.O.O., priority 2009, dated 2013).
Like-named read-outs stand apart in the source and are kept apart here.

Key:
[1] = test system: rats with alloxan diabetes
Description: The results were presented below in Table 2.
The results of the trials were presented below in Table 3.

[2] = test system: model animals with experimentally-induced sepsis; settings: 0% for untreated animals
[3] = test system: psychotic and neurological patients (multiple sclerosis, anxiety, depression); assay: Clinical trials in nervous system and psychic diseases; type: in vivo, human
Description: In the psychotic patients in combination with the conventional treatment and in the neurological patients as monotherapy.

[4] = test system: rats with experimental myocardial infarction; settings: for ALT / AST / CPK / LDH1, 2: blood, 5 mg/kg per 24 hours intramuscularly, n = 5
Procedure: (§1) The animals of 230 to 258 g were subjected to ether narcosis for 1-3 minutes, Next, by the thoracotomy method there was achieved access to the anterior branch of the coronary artery and its lumen was closed by means of an electrode. The wound was closed by atraumatic sutures. […] The rats were divided in two groups.
(§2) The animals were being observed for 24 hours (every one in a separate cage). […] The second group of 10 rats (5 of each group) were killed after 5 days and the third group of 10 animals (5 of each group)—after 7 days. In all the rats there was performed postmortem macroscopic examination of hearts, pleura and abdominal cavity organs. The tissues were taken from the infarct focus for microscopic examination. They were retained in formalin and stained conventionally with H-E. Blood for biochemical tests was taken by heart puncture of 3 ml volume.
In the biochemical trials there were estimated levels of creatinine kinase (CPK), lactate dehydrogenase (LDH 1-2), aspargine transaminase (AST) and alanine transaminase (ALT) before the infarct and on 1, 5 and 7 day after the infarct (Apparatus “Immunochemistry System”, Beckman Coulter, “DSL”, “Multiscan”, Labsystem; Glycomat DSS, Drew).

[5] = test system: patients with inflammatory diseases of head, maxillofacial area and neck; settings: above 50 patients, various forms and doses
rats with STZ diabetes = assay: Rats with diabetes induced by streptozotocin (STZ); type: in vivo; settings: for glycemia / level of malonic dialdehyde (MDA), oxidation stress marker: in comparison to the group of the STZ untreated rats
[6] = test system: rats with experimentally developed muscles ischemia
[7] = test system: rats with experimental myocardial infarction
Procedure: as §1, §2

[8] = test system: patients suffering from diabetes of type I and type II
[9] = test system: patients with acute and chronic pancreatitis
[10] = test system: people after myocardial infarction; settings: 15 patients, versus control group
Description: II-Na salt was applied also for treatment of people after myocardial infarction.

[11] = background statement; cited from earlier work
[12] = blood, alloxan diabetes rats treated with II-Na salt (Table 2)
[13] = blood, alloxan diabetes rats treated with II-Na salt (Table 3)

Q: For `Nc1cccc2c(=O)[nH][nH]c(=O)c12.[Na]` [II-Na salt, 5-amino-2,3-dihydrophthalazine-1,4-dione sodium salt], which IGF-1 ([1]; blood, alloxan diabetes rats treated with II-Na salt) is on record?
A: 699.13 ± 81.4 ng/mL

Q: And the IGF-2 [1, 12]?
A: 37.9 ± 1.65 ng/mL

Q: And the Insulin [1, 12]?
A: 0.724 ± 0.08 mg/mL

Q: And the IGF-2 [1, 13]?
A: 37.9 ± 1.65 ng/mL

Q: What about the Insulin [1, 13] of the same compound?
A: 7.24e-07 ± 8e-08 mg/mL

Q: What about the Glucose ([1]; blood, alloxan diabetes rats treated with II-Na salt, 5 mg per kg per 24 hours for a month, sodium salt) of the same compound?
A: 4.16 ± 0.56 mmol/L

Q: And the “Glycated hemoglobin (Hb A1C)” value ([1]; blood, alloxan diabetes rats treated with II-Na salt, sodium salt)?
A: 9.05 ± 0.58 %

Q: What about the IGF-1/IGF-2 ([1]; ratio, alloxan diabetes rats treated with II-Na salt) of the same compound?
A: 16.2 ± 2.4

Q: And the viability of rats [2]?
A: 80%

Q: And the “lymphocytic profile and cytokines” value ([3]; II-Na salt 100 mg per 24 hours intramuscularly for 30 days)?
A: normalization of the lymphocytic profile and cytokines

Q: What about the disease symptoms ([3]; human, in vivo) of the same compound?
A: disease symptoms reduction

Q: What about the “preventive use in the period of remission” value ([3]; spring and autumn, 100 mg/d, 10 injections every day and 10 every second day) of the same compound?
A: long-time remission

Q: What about the ALT ([4]; fifth day after infarct) of the same compound?
A: 0.271 ± 0.059 µmol/L

Q: And the AST ([4]; fifth day after infarct)?
A: 0.204 ± 0.03 µmol/L

Q: What about the CPK ([4]; fifth day after infarct) of the same compound?
A: 405.28 ± 27.84 µmol/L

Q: What about the “LDH1, 2” value ([4]; fifth day after infarct) of the same compound?
A: 187.94 ± 34.37 µmol/L

Q: And the ALT ([4]; first day after infarct)?
A: 0.178 ± 0.028 µmol/L

Q: And the AST ([4]; first day after infarct)?
A: 0.254 ± 0.034 µmol/L

Q: And the CPK ([4]; first day after infarct)?
A: 322.56 ± 43.79 µmol/L

Q: What about the “LDH1, 2” value ([4]; first day after infarct) of the same compound?
A: 248.84 ± 41.10 µmol/L

Q: And the ALT ([4]; seventh day after infarct)?
A: 0.24 ± 0.024 µmol/L

Q: And the AST ([4]; seventh day after infarct)?
A: 0.225 ± 0.024 µmol/L

Q: And the CPK ([4]; seventh day after infarct)?
A: 291.35 ± 18.9 µmol/L

Q: And the “LDH1, 2” value ([4]; seventh day after infarct)?
A: 175.5 ± 25.89 µmol/L

Q: What about the “normalization of the tested blood parameters” value ([4]; conclusion on Table 1) of the same compound?
A: quicker normalization of all the tested parameters

Q: And the “effect on inflammatory state” value [5]?
A: quicker tissues regeneration, inhibition of apoptosis and quicker symptoms subsidence or remission maintenance

Q: And the glycemia (rats with STZ diabetes)?
A: 62%

Q: What about the “level of malonic dialdehyde (MDA), oxidation stress marker” value (rats with STZ diabetes) of the same compound?
A: 48.7%

Q: And the “level of glutathione (GSH), oxidation stress marker” value (rats with STZ diabetes; result in words)?
A: does not change

Q: What about the “Number of capill. in 1 mm^3” value ([6]; Ischaemia-12 days) of the same compound?
A: 152.3 ± 12.7 in 1 mm^3

Q: And the “Number of capill. in 1 mm^3” value ([6]; Ischaemia-29 days)?
A: 236.4 ± 16.9 in 1 mm^3

Q: And the “polymorphic-nucleated leucocytes in the demarcation zone” value ([7]; fifth day)?
A: not observed

Q: And the “postoperative wound healed by first intension (per primam)” value ([7]; fifth day, 4 rats without II-Na salt)?
A: all 5 rats

Q: What about the leucocytes migration ([7]; first 24 hours after the infarct) of the same compound?
A: not observed

Q: What about the “fibrosis (Weinert's staining)” value ([7]; fourteenth day, 5 mg/kg) of the same compound?
A: only few traits of fibrosis

Q: What about the polymorphic-nucleated leucocytes ([7]; fourteenth day, 5 mg/kg) of the same compound?
A: not observed

Q: And the “regeneration processes of damaged tissues” value ([7]; overall conclusion)?
A: positive influence on regeneration processes of damaged tissues

Q: What about the “capillary vessels in the infarct zone” value ([7]; seventh day) of the same compound?
A: normal of the sinusoidal type

Q: And the glycemia level ([8]; after a week of treatment, from 7.5 mmol/l, 100 mg intramuscular injection)?
A: 5.1 mmol/L

Q: And the insulin dose ([8]; after a week of treatment, reduced from 45 IU)?
A: 15 IU per day

Q: And the cholesterol level ([8]; patients with diabetes of type II)?
A: slight reduction

Q: And the “starting formation of pseudocysts” value ([9]; 2 patients, after treatment)?
A: disappeared

Q: And the septic complications ([9]; 25 patients, conventional therapy plus II-Na salt)?
A: one patient

Q: And the “normalization of the laboratory tests results” value ([9]; after a month, of 25 patients)?
A: twenty two patients

Q: And the “patients who could come back to nutrition per os” value ([9]; after three weeks of treatment, of 25 patients)?
A: twenty patients

Q: And the insulin level ([9]; after two weeks of treatment)?
A: raised nearly to normal

Q: And the “reduction of the glucose level” value ([9]; after two weeks of treatment)?
A: two times

Q: And the “reduction Hb1AC” value ([9]; after two weeks of treatment, fifteen patients with reduced insulin level)?
A: in six patients to the normal range

Q: And the insulin administration ([9]; after two weeks of treatment, from up to 40 IU/day)?
A: 10 IU/day

Q: What about the “pain disappeared in all patients (time)” value ([9]; control group: above two weeks) of the same compound?
A: seven days

Q: What about the “pain symptoms reduced in all the patients (time)” value ([9]; day of treatment) of the same compound?
A: second day

Q: What about the “effects observed in the pancreas” value ([9]; research (rats, 5 mg per kg per 24 hours for a month) and clinical trials) of the same compound?
A: inhibition of inflammatory and necrotic processes in the pancreas

Q: What about the “pain discomfort in the chest” value ([10]; 100/200 mg per 24 hours intramuscular for seven days plus conventional therapy) of the same compound?
A: quicker reduction of pain discomfort in the chest

Q: What about the “blood biochemical parameters (CPK, LDH, ALT, AST) and x-ray image” value [10] of the same compound?
A: quicker normalization of blood biochemical parameters

Q: Which results are given for `CN(CCOc1ccc(CC2SC(=O)NC2=O)cc1)c1ccccn1` (centres unmarked) [Rosiglytazone, reference compound]?
A: glycemia (rats with STZ diabetes): 55%; level of malonic dialdehyde (MDA), oxidation stress marker (rats with STZ diabetes): 54%; level of glutathione (GSH), oxidation stress marker (rats with STZ diabetes; in comparison to the healthy rats): 127%

Q: For `Nn1[nH]c(=O)c2ccccc2c1=O.[Na]` [compound III, 2-amino-1,2,3,4-tetrahydrophthalazine-1,4-dione sodium salt], which solubility in water [11] is on record?
A: easily soluble in water

Q: Which solubility in water [11] does the source give for `Nc1cccc2c(=O)[nH][nH]c(=O)c12` [luminol, 5-Amino-2,3-dihydrophthalazine-1,4-dione] here?
A: poorly soluble in water
